These results are taken from the NIST ThermoML archive (doi:10.1016/j.jct.2014.12.023).

The data set can be described thus: activity coefficient (dimensionless); of the first substance listed, at infinite dilution; xn = mol fraction of the nth substance listed. To be noted: 87.4 kPa, Liquid, Chromatography, x1 = 0.

SMILES strings stand for the structures. Numbers after ± are expanded uncertainties.

With `CC(C)O` [propan-2-ol] + O=S(=O)([N-]S(=O)(=O)C(F)(F)F)C(F)(F)F.O=S(=O)([N-]S(=O)(=O)C(F)(F)F)C(F)(F)F.c1ccc2cc(C[N+]3(CCCCCCCCC[N+]4(Cc5ccc6ccccc6c5)CCCC4)CCCC3)ccc2c1, the activity coefficient by setting is: (313 K) 1.21 ± 0.061; (323 K) 1.09 ± 0.051; (333 K) 1.05 ± 0.048; (343 K) 0.992 ± 0.045.
For `C1COCCO1` [1,4-dioxane] + O=S(=O)([N-]S(=O)(=O)C(F)(F)F)C(F)(F)F.O=S(=O)([N-]S(=O)(=O)C(F)(F)F)C(F)(F)F.c1ccc2cc(C[N+]3(CCCCCCCCC[N+]4(Cc5ccc6ccccc6c5)CCCC4)CCCC3)ccc2c1, the activity coefficient stood at 0.382 ± 0.029 (313 K), 0.397 ± 0.029 (323 K), 0.413 ± 0.03 (333 K) and 0.451 ± 0.031 (343 K).
Regarding `Cc1ccccc1` [toluene] + O=S(=O)([N-]S(=O)(=O)C(F)(F)F)C(F)(F)F.O=S(=O)([N-]S(=O)(=O)C(F)(F)F)C(F)(F)F.c1ccc2cc(C[N+]3(CCCCCCCCC[N+]4(Cc5ccc6ccccc6c5)CCCC4)CCCC3)ccc2c1, the activity coefficient (313 K) came out at 0.714 ± 0.035, the activity coefficient (323 K) worked out at 0.721 ± 0.035, the activity coefficient (333 K) amounted to 0.723 ± 0.036 and the activity coefficient (343 K) is 0.727 ± 0.036.
`CC(=O)O` [acetic acid] + O=S(=O)([N-]S(=O)(=O)C(F)(F)F)C(F)(F)F.O=S(=O)([N-]S(=O)(=O)C(F)(F)F)C(F)(F)F.c1ccc2cc(C[N+]3(CCCCCCCCC[N+]4(Cc5ccc6ccccc6c5)CCCC4)CCCC3)ccc2c1: the activity coefficient (313 K) is 0.824 ± 0.04, the activity coefficient (323 K) is 0.767 ± 0.038, the activity coefficient (333 K) was 0.746 ± 0.036 and the activity coefficient (343 K) came out at 0.74 ± 0.036.
For `CCOC(C)=O` [ethyl acetate] + O=S(=O)([N-]S(=O)(=O)C(F)(F)F)C(F)(F)F.O=S(=O)([N-]S(=O)(=O)C(F)(F)F)C(F)(F)F.c1ccc2cc(C[N+]3(CCCCCCCCC[N+]4(Cc5ccc6ccccc6c5)CCCC4)CCCC3)ccc2c1, the activity coefficient by setting is: (313 K) 0.541 ± 0.032; (323 K) 0.565 ± 0.032; (333 K) 0.601 ± 0.033; (343 K) 0.628 ± 0.034.
`CCCC(C)=O` [pentan-2-one] + O=S(=O)([N-]S(=O)(=O)C(F)(F)F)C(F)(F)F.O=S(=O)([N-]S(=O)(=O)C(F)(F)F)C(F)(F)F.c1ccc2cc(C[N+]3(CCCCCCCCC[N+]4(Cc5ccc6ccccc6c5)CCCC4)CCCC3)ccc2c1: the activity coefficient (313 K) stood at 0.432 ± 0.029, the activity coefficient (323 K) came out at 0.437 ± 0.029, the activity coefficient (333 K) was 0.444 ± 0.03 and the activity coefficient (343 K) was found to be 0.448 ± 0.03.
Consider `Cc1ccc(C)cc1` [1,4-dimethylbenzene] + O=S(=O)([N-]S(=O)(=O)C(F)(F)F)C(F)(F)F.O=S(=O)([N-]S(=O)(=O)C(F)(F)F)C(F)(F)F.c1ccc2cc(C[N+]3(CCCCCCCCC[N+]4(Cc5ccc6ccccc6c5)CCCC4)CCCC3)ccc2c1, for which the activity coefficient (313 K) worked out at 0.881 ± 0.04, the activity coefficient (323 K) came out at 0.9 ± 0.041, the activity coefficient (333 K) is 0.929 ± 0.042 and the activity coefficient (343 K) was found to be 0.992 ± 0.045.
The matching figures for `CCCC=O` [butanal] + O=S(=O)([N-]S(=O)(=O)C(F)(F)F)C(F)(F)F.O=S(=O)([N-]S(=O)(=O)C(F)(F)F)C(F)(F)F.c1ccc2cc(C[N+]3(CCCCCCCCC[N+]4(Cc5ccc6ccccc6c5)CCCC4)CCCC3)ccc2c1: 0.448 ± 0.03, 0.464 ± 0.03, 0.487 ± 0.03 and 0.491 ± 0.03.
In the case of `Cc1cccc(C)c1` [1,3-dimethylbenzene] + O=S(=O)([N-]S(=O)(=O)C(F)(F)F)C(F)(F)F.O=S(=O)([N-]S(=O)(=O)C(F)(F)F)C(F)(F)F.c1ccc2cc(C[N+]3(CCCCCCCCC[N+]4(Cc5ccc6ccccc6c5)CCCC4)CCCC3)ccc2c1, the activity coefficient reads like this: (313 K) 0.857 ± 0.042; (323 K) 0.924 ± 0.042; (333 K) 0.941 ± 0.042; (343 K) 0.996 ± 0.045.
Turning to `CC#N` [acetonitrile] + O=S(=O)([N-]S(=O)(=O)C(F)(F)F)C(F)(F)F.O=S(=O)([N-]S(=O)(=O)C(F)(F)F)C(F)(F)F.c1ccc2cc(C[N+]3(CCCCCCCCC[N+]4(Cc5ccc6ccccc6c5)CCCC4)CCCC3)ccc2c1, the activity coefficient came out at 0.339 ± 0.028 (313 K), 0.341 ± 0.028 (323 K), 0.349 ± 0.028 (333 K) and 0.372 ± 0.029 (343 K).
The matching figures for `ClC(Cl)(Cl)Cl` [tetrachloromethane] + O=S(=O)([N-]S(=O)(=O)C(F)(F)F)C(F)(F)F.O=S(=O)([N-]S(=O)(=O)C(F)(F)F)C(F)(F)F.c1ccc2cc(C[N+]3(CCCCCCCCC[N+]4(Cc5ccc6ccccc6c5)CCCC4)CCCC3)ccc2c1: 1.45 ± 0.07, 1.47 ± 0.071, 1.51 ± 0.073 and 1.52 ± 0.074.
For the molecule `O=C1CCCC1` [cyclopentanone] + O=S(=O)([N-]S(=O)(=O)C(F)(F)F)C(F)(F)F.O=S(=O)([N-]S(=O)(=O)C(F)(F)F)C(F)(F)F.c1ccc2cc(C[N+]3(CCCCCCCCC[N+]4(Cc5ccc6ccccc6c5)CCCC4)CCCC3)ccc2c1, the activity coefficient is 0.318 ± 0.028 (313 K), 0.324 ± 0.028 (323 K), 0.33 ± 0.028 (333 K) and 0.347 ± 0.028 (343 K).
The matching figures for `ClCCCl` [1,2-dichloroethane] + O=S(=O)([N-]S(=O)(=O)C(F)(F)F)C(F)(F)F.O=S(=O)([N-]S(=O)(=O)C(F)(F)F)C(F)(F)F.c1ccc2cc(C[N+]3(CCCCCCCCC[N+]4(Cc5ccc6ccccc6c5)CCCC4)CCCC3)ccc2c1: 0.568 ± 0.032, 0.569 ± 0.032, 0.596 ± 0.033 and 0.613 ± 0.033.
With `O=Cc1ccccc1` [benzaldehyde] + O=S(=O)([N-]S(=O)(=O)C(F)(F)F)C(F)(F)F.O=S(=O)([N-]S(=O)(=O)C(F)(F)F)C(F)(F)F.c1ccc2cc(C[N+]3(CCCCCCCCC[N+]4(Cc5ccc6ccccc6c5)CCCC4)CCCC3)ccc2c1, the activity coefficient reads like this: (313 K) 0.997 ± 0.044; (323 K) 0.997 ± 0.044; (333 K) 0.998 ± 0.044; (343 K) 0.999 ± 0.044.
Regarding `CCCO` [propan-1-ol] + O=S(=O)([N-]S(=O)(=O)C(F)(F)F)C(F)(F)F.O=S(=O)([N-]S(=O)(=O)C(F)(F)F)C(F)(F)F.c1ccc2cc(C[N+]3(CCCCCCCCC[N+]4(Cc5ccc6ccccc6c5)CCCC4)CCCC3)ccc2c1, the activity coefficient came to 1.33 ± 0.083 (313 K), 1.07 ± 0.057 (323 K), 1.02 ± 0.045 (333 K) and 1.01 ± 0.044 (343 K).
For the molecule `c1ccccc1` [benzene] + O=S(=O)([N-]S(=O)(=O)C(F)(F)F)C(F)(F)F.O=S(=O)([N-]S(=O)(=O)C(F)(F)F)C(F)(F)F.c1ccc2cc(C[N+]3(CCCCCCCCC[N+]4(Cc5ccc6ccccc6c5)CCCC4)CCCC3)ccc2c1, the activity coefficient was found to be 0.515 ± 0.031 (313 K), 0.517 ± 0.031 (323 K), 0.52 ± 0.031 (333 K) and 0.574 ± 0.034 (343 K).
Consider `CCN(CC)CC` [triethylamine] + O=S(=O)([N-]S(=O)(=O)C(F)(F)F)C(F)(F)F.O=S(=O)([N-]S(=O)(=O)C(F)(F)F)C(F)(F)F.c1ccc2cc(C[N+]3(CCCCCCCCC[N+]4(Cc5ccc6ccccc6c5)CCCC4)CCCC3)ccc2c1, for which the activity coefficient was found to be 0.762 ± 0.098 (313 K), 1.22 ± 0.081 (323 K), 1.35 ± 0.068 (333 K) and 1.45 ± 0.072 (343 K).
